Assay results from publication PMC4894406, “Results of an abbreviated phase-II study with the Akt Inhibitor MK-2206 in Patients with Advanced Biliary Cancer” (Scientific Reports, 2015).
Where “and” joins values, the source holds several entries; their conditions need not be identical. Equal values may be shown once. Read-outs that look alike come from different tables or passages of the source.

Assays:
CYP3A4 = conditions: cited from earlier work
human Akt (Akt-2) = conditions: cited from earlier work
[1] = Plasma pharmacokinetics in biliary cancer patients (LC-MS/MS, non-compartmental); assay type: in vivo, human; conditions: for AUC(0-t): read-out: AUC0–96; for Vd/F: read-out: Vz/F; for k el: read-out: λz (converted)
Procedure: Plasma samples were collected from all patients at Week 1 of Cycle 1 immediately prior to dose administration, and at 30 min, 1, 2, 3, 4, 6, 8, 24, 48, and 96 hours after dose administration. The 24, 48 and 96-hour samples were collected on the mornings of days 2, 3 and 5 within 4 hours of the target time (e.g. 24 ± 4, 48 ± 4, and 96 ± 4 hours). Plasma samples were also collected immediately prior to the oral intake of MK-2206 tablet(s) on days 8, 15 and 29 (i.e. Cycle 2, Day 1) so that trough pre-dose levels of MK-2206 could be determined in the following studies. The plasma levels of MK-2206 were evaluated using quantitative liquid chromatography/tandem mass spectrometry (LC-MS/MS) at Merck & Co. Non-compartmental PK parameters were determined for MK-2206 using Phoenix WinNonlin (v6.3, Pharsight, Mountain View, CA).

breast cancer = test system: breast cancer; parameters: method as in PMID 24252402; conditions: 48-hr plasma concentration, patients with breast cancer; cited from earlier work
[2] = OSU Trial, 7 subjects (subject 1004 excluded), BSA-adjusted
[3] = OSU Trial, 7 subjects (subject 1004 excluded), first dose 200 mg
[4] = human, plasma, po, 200 mg, subject 1001, first dose 200 mg oral
[5] = human, plasma, po, 200 mg, subject 1002, first dose 200 mg oral
[6] = human, plasma, po, 200 mg, subject 1003, first dose 200 mg oral
[7] = human, plasma, po, 200 mg, subject 1004, first dose 200 mg oral
[8] = human, plasma, po, 200 mg, subject 1005, first dose 200 mg oral
[9] = human, plasma, po, 200 mg, subject 1007, first dose 200 mg oral
[10] = human, plasma, po, 200 mg, subject 2006, first dose 200 mg oral
[11] = human, plasma, po, 200 mg, subject 2008, first dose 200 mg oral

NC1(c2ccc(-c3nc4ccn5c(=O)[nH]nc5c4cc3-c3ccccc3)cc2)CCC1 [MK-2206]
metabolism in human microsomes (CYP3A4): converted to oxidative metabolites in human microsomes via CYP3A4
IC50 (human Akt (Akt-2)): 12 nM
CL/F/m^2 (BSA-adjusted CL/F) [1, 2]: 16.5 +/− 7.2 L/hr/m^2 and 16.5±7.2 L/hr/m^2
Vz/F/m^2 [1, 2]: 1521±931 L/m^2
Cmax (average) [1, 3]: 114 ng/mL
Tmax (average) [1, 3]: 6.0 ± 1.6 h
concentration at 48 h ([1]; human, plasma, oral, 200 mg, 6 of 8 patients, read-out: 48-hr plasma concentration): > 22.7 ng/mL and > 56.8 nM
half-life ([1]; human, plasma, oral, 200 mg, OSU Trial, 7 subjects (subject 1004 excluded), first dose 200 mg, read-out: Half life (average) (converted)): 63.5 ± 21.2 h
concentration at 8 day ([1]; human, plasma, oral, 200 mg, day 8, 200 mg weekly, read-out: trough pre-dose average plasma concentration): 14.7 ng/mL
concentration at 15 day ([1]; human, plasma, oral, 200 mg, day 15, 200 mg weekly, read-out: trough pre-dose average plasma concentration): 14.4 ng/mL
concentration at 48 h ([1]; human, plasma, oral, 200 mg, one of the other two patients, read-out: Plasma concentration measured at 48 hours): 18.5 ng/mL
concentration at 48 h ([1]; human, plasma, oral, 200 mg, subject 1004, read-out: Plasma concentration measured at 48 hours): 5.06 ng/mL
Tmax ([1]; human, plasma, po, 200 mg, eight patients, first dose 200 mg oral, read-out: Tmax, range): 4 to 8 h
half-life ([1]; human, plasma, po, 200 mg, eight patients, first dose 200 mg oral, read-out: median terminal elimination half-life (converted)): 58 h
Tmax ([1]; human, plasma, po, 200 mg, eight patients, first dose 200 mg oral, read-out: median time to peak observed plasma concentrations (Tmax)): 6 h
half-life ([1]; human, plasma, po, 200 mg, eight patients, first dose 200 mg oral, read-out: terminal elimination half-life, range): 34 to 88 h
Cmax [1, 4]: 106 ng/mL
AUC(0-t) [1, 4]: 3320 ng·h/mL
half-life ([1]; human, plasma, po, 200 mg, subject 1001, first dose 200 mg oral, read-out: Half-life (converted)): 53.3 h
Tmax ([1]; human, plasma, po, 200 mg, subject 1001, first dose 200 mg oral, read-out: Tmax): 4 h
Vd/F [1, 4]: 3270 L
k el [1, 4]: 3.61e-06 s⁻¹
Cmax [1, 5]: 111 ng/mL
AUC(0-t) [1, 5]: 6850 ng·h/mL
half-life ([1]; human, plasma, po, 200 mg, subject 1002, first dose 200 mg oral, read-out: Half-life (converted)): 80.4 h
Tmax ([1]; human, plasma, po, 200 mg, subject 1002, first dose 200 mg oral, read-out: Tmax): 6 h
Vd/F [1, 5]: 1870 L
k el [1, 5]: 2.5e-06 s⁻¹
Cmax [1, 6]: 176 ng/mL
AUC(0-t) [1, 6]: 8450 ng·h/mL
half-life ([1]; human, plasma, po, 200 mg, subject 1003, first dose 200 mg oral, read-out: Half-life (converted)): 33.8 h
Tmax ([1]; human, plasma, po, 200 mg, subject 1003, first dose 200 mg oral, read-out: Tmax): 6 h
Vd/F [1, 6]: 989 L
k el [1, 6]: 5.83e-06 s⁻¹
Cmax [1, 7]: 11.1 ng/mL
AUC(0-t) [1, 7]: 531 ng·h/mL
half-life ([1]; human, plasma, po, 200 mg, subject 1004, first dose 200 mg oral, read-out: Half-life (converted)): 62.5 h
Tmax ([1]; human, plasma, po, 200 mg, subject 1004, first dose 200 mg oral, read-out: Tmax): 8 h
Vd/F [1, 7]: 22200 L
k el [1, 7]: 3.06e-06 s⁻¹
Cmax [1, 8]: 108 ng/mL
AUC(0-t) [1, 8]: 6020 ng·h/mL
half-life ([1]; human, plasma, po, 200 mg, subject 1005, first dose 200 mg oral, read-out: Half-life (converted)): 86.9 h
Tmax ([1]; human, plasma, po, 200 mg, subject 1005, first dose 200 mg oral, read-out: Tmax): 8 h
Vd/F [1, 8]: 2210 L
k el [1, 8]: 2.22e-06 s⁻¹
Cmax [1, 9]: 90.1 ng/mL
AUC(0-t) [1, 9]: 3730 ng·h/mL
half-life ([1]; human, plasma, po, 200 mg, subject 1007, first dose 200 mg oral, read-out: Half-life (converted)): 50.2 h
Tmax ([1]; human, plasma, po, 200 mg, subject 1007, first dose 200 mg oral, read-out: Tmax): 6 h
Vd/F [1, 9]: 2880 L
k el [1, 9]: 3.89e-06 s⁻¹
Cmax [1, 10]: 144 ng/mL
AUC(0-t) [1, 10]: 5850 ng·h/mL
half-life ([1]; human, plasma, po, 200 mg, subject 2006, first dose 200 mg oral, read-out: Half-life (converted)): 52.4 h
Tmax ([1]; human, plasma, po, 200 mg, subject 2006, first dose 200 mg oral, read-out: Tmax): 4 h
Vd/F [1, 10]: 1870 L
k el [1, 10]: 3.61e-06 s⁻¹
Cmax [1, 11]: 44.7 ng/mL
AUC(0-t) [1, 11]: 2060 ng·h/mL
half-life ([1]; human, plasma, po, 200 mg, subject 2008, first dose 200 mg oral, read-out: Half-life (converted)): 87.5 h
Tmax ([1]; human, plasma, po, 200 mg, subject 2008, first dose 200 mg oral, read-out: Tmax): 8 h
Vd/F [1, 11]: 6560 L
k el [1, 11]: 2.22e-06 s⁻¹
CL/F ([1]; subject 1001, first dose 200 mg oral): 42.5 L/h
CL/F ([1]; subject 1002, first dose 200 mg oral): 16.1 L/h
CL/F ([1]; subject 1003, first dose 200 mg oral): 20.3 L/h
CL/F ([1]; subject 1004, first dose 200 mg oral): 245 L/h
Cmax and AUC of subject 1004 compared to others ([1]; subject 1004 relative to the other seven subjects): 6% to 25
CL/F ([1]; subject 1005, first dose 200 mg oral): 17.6 L/h
CL/F ([1]; subject 1007, first dose 200 mg oral): 39.8 L/h
CL/F ([1]; subject 2006, first dose 200 mg oral): 24.8 L/h
CL/F ([1]; subject 2008, first dose 200 mg oral): 52.0 L/h
accumulation with the current regimen ([1]; trough levels days 8 and 15, 200 mg weekly): no significant accumulation
plasma concentration reported to be effective (breast cancer): ≥ 22.7 ng/mL
